# Test results taken from article PMC9848300, “Discovery of novel enasidenib analogues targeting inhibition of mutant isocitrate dehydrogenase 2 as antileukaemic agents” (Journal of Enzyme Inhibition and Medicinal Chemistry, 2023).
# Key:
# Type in all cases: cell-based
# SNB-19 = assay: NCI 60 antitumor screening (single dose); details: Homo sapiens; SNB-19 (CNS cancer), single dose 10 μM; read-out: Growth inhibition percentage (GI %)
# Experimental: (§1) Initially, the anticancer effects of target compounds have been assessed at a single (10 μM) dose. The obtained data have been reported as mean-graph of the percent growth (G%) of the treated cancer cells. Percentage growth inhibition (GI%) is calculated (100 − G%) and pronounced in Table 1. […] Target compounds in series (III) with manipulated linkers disclosed lower potency. Superiorly, eight s-triazine derivatives from the three series (6a, 6c, 6d, 7a, 7g, 7i, 7l, and 8b) have shown potent broad-spectrum anticancer activity against most the examined cell lines, whereas most of the remaining triazine derivatives, 20 derivatives, have exerted selective anti-proliferative actions towards certain cancer cell lines (Supplementary).
# (§2) The antitumor screening was performed for 60 human cancer cell lines under the protocol of NCI (www.dtp.nci.nih.gov), the Drug Evaluation Branch, Bethesda, MD. All submitted compounds were nominated based on the degree of structural diversity and computer modelling techniques for evaluation of their anticancer activity. The screening process for antineoplastic activity passes through two successive levels, starting with the assessment of target compounds at a single dose of 10 μM against 60 cancer cell lines on nine types of human tumours. These experiments were done on a triplicate following. The output from the single‐dose screening was covered as a mean graph, and then, analysed by the COMPARE program. Finally, the compounds which disclosed subpanel cancer cell growth (G %) equal to or less than 10% in at least eight cancer cell lines get to pass the assessment against the 60 cell lines at five doses (0.01–100 μM). By using GraphPad Prism version 9.0 (Graphpad Software Inc., La Jolla, CA), GI50, TGI, as well as LC50 dose‐response parameters were computed and presented for each compound (Supplementary information)[55–57].
# SF-268 = assay: NCI 60 antitumor screening (single dose); details: Homo sapiens; SF-268 (CNS cancer), single dose 10 μM; read-out: Growth inhibition percentage (GI %)
# Experimental: as §1, §2
# PC-3 = assay: NCI 60 antitumor screening (single dose); details: Homo sapiens; PC-3 (prostate cancer), single dose 10 μM; read-out: Growth inhibition percentage (GI %)
# Experimental: as §1, §2
# HS 578T = assay: NCI 60 antitumor screening (single dose); details: Homo sapiens; HS 578T (breast cancer), single dose 10 μM; read-out: Growth inhibition percentage (GI %)
# Experimental: as §1, §2
# MCF7 = assay: NCI 60 antitumor screening (single dose); details: Homo sapiens; MCF7 (breast cancer), single dose 10 μM; read-out: Growth inhibition percentage (GI %)
# Experimental: as §1, §2
# OVCAR-4 = assay: NCI 60 antitumor screening (single dose); details: Homo sapiens; OVCAR-4 (ovarian cancer), single dose 10 μM; read-out: Growth inhibition percentage (GI %)
# Experimental: as §1, §2
# SK-OV-3 = assay: NCI 60 antitumor screening (single dose); details: Homo sapiens; SK-OV-3 (ovarian cancer), single dose 10 μM; read-out: Growth inhibition percentage (GI %)
# Experimental: as §1, §2
# NCI-H322M = assay: NCI 60 antitumor screening (single dose); details: Homo sapiens; NCI-H322M (non-small cell lung cancer), single dose 10 μM; read-out: Growth inhibition percentage (GI %)
# Experimental: as §1, §2
# M14 = assay: NCI 60 antitumor screening (single dose); details: Homo sapiens; M14 (melanoma), single dose 10 μM; read-out: Growth inhibition percentage (GI %)
# Experimental: as §1, §2
# HCC-2998 = assay: NCI 60 antitumor screening (single dose); details: Homo sapiens; HCC-2998 (colon cancer), single dose 10 μM; read-out: Growth inhibition percentage (GI %)
# Experimental: as §1, §2
# U251 = assay: NCI 60 antitumor screening (single dose); details: Homo sapiens, U-251; U251 (CNS cancer), single dose 10 μM; read-out: Growth inhibition percentage (GI %)
# Experimental: as §1, §2
# OVCAR-8 = assay: NCI 60 antitumor screening (single dose); details: Homo sapiens; OVCAR-8 (ovarian cancer), single dose 10 μM; read-out: Growth inhibition percentage (GI %)
# Experimental: as §1, §2
# NCI-H460 = assay: NCI 60 antitumor screening (single dose); details: Homo sapiens; NCI-H460 (non-small cell lung cancer), single dose 10 μM; read-out: Growth inhibition percentage (GI %)
# Experimental: as §1, §2
# HOP-62 = assay: NCI 60 antitumor screening (single dose); details: Homo sapiens; HOP-62 (non-small cell lung cancer), single dose 10 μM; read-out: Growth inhibition percentage (GI %)
# Experimental: as §1, §2
# OVCAR-3 = assay: NCI 60 antitumor screening (single dose); details: Homo sapiens; OVCAR-3 (ovarian cancer), single dose 10 μM; read-out: Growth inhibition percentage (GI %)
# Experimental: as §1, §2
# NCI-H522 = assay: NCI 60 antitumor screening (single dose); details: Homo sapiens; NCI-H522 (non-small cell lung cancer), single dose 10 μM; read-out: Growth inhibition percentage (GI %)
# Experimental: as §1, §2
# CAKI-1 = assay: NCI 60 antitumor screening (single dose); details: Homo sapiens; CAKI-1 (renal cancer), single dose 10 μM; read-out: Growth inhibition percentage (GI %)
# Experimental: as §1, §2
# A549/ATCC = assay: NCI 60 antitumor screening (single dose); details: Homo sapiens; A549/ATCC (non-small cell lung cancer), single dose 10 μM; read-out: Growth inhibition percentage (GI %)
# Experimental: as §1, §2
# NCI-H226 = assay: NCI 60 antitumor screening (single dose); details: Homo sapiens; NCI-H226 (non-small cell lung cancer), single dose 10 μM; read-out: Growth inhibition percentage (GI %)
# Experimental: as §1, §2
# TK-10 = assay: NCI 60 antitumor screening (single dose); details: Homo sapiens; TK-10 (renal cancer), single dose 10 μM; read-out: Growth inhibition percentage (GI %)
# Experimental: as §1, §2
# KM 12 = assay: NCI 60 antitumor screening (single dose); details: Homo sapiens, KM12; KM 12 (colon cancer), single dose 10 μM; read-out: Growth inhibition percentage (GI %)
# Experimental: as §1, §2
# NCI-H23 = assay: NCI 60 antitumor screening (single dose); details: Homo sapiens; NCI-H23 (non-small cell lung cancer), single dose 10 μM; read-out: Growth inhibition percentage (GI %)
# Experimental: as §1, §2
# OVCAR-5 = assay: NCI 60 antitumor screening (single dose); details: Homo sapiens; OVCAR-5 (ovarian cancer), single dose 10 μM; read-out: Growth inhibition percentage (GI %)
# Experimental: as §1, §2
# RXF 393 = assay: NCI 60 antitumor screening (single dose / five doses); details: Homo sapiens; for inhibition at 10 µM: RXF 393 (renal cancer), single dose 10 μM, read-out: Growth inhibition percentage (GI %); for GI50: RXF 393, five doses (0.01–100 μM), read-out: GI50
# MDA-MB-435 = assay: as above; details: Homo sapiens; for inhibition at 10 µM: MDA-MB-435 (melanoma), single dose 10 μM, read-out: Growth inhibition percentage (GI %); for GI50: MDA-MB-435, five doses (0.01–100 μM), read-out: GI50
# HOP-92 = assay: as above; details: Homo sapiens; for inhibition at 10 µM: HOP-92 (non-small cell lung cancer), single dose 10 μM, read-out: Growth inhibition percentage (GI %); for GI50: HOP-92, five doses (0.01–100 μM), read-out: GI50
# SR = assay: as above; details: Homo sapiens; for inhibition at 10 µM: SR (leukaemia), single dose 10 μM, read-out: Growth inhibition percentage (GI %); for GI50: SR, five doses (0.01–100 μM), read-out: GI50
SMILES,inhibition at 10 µM (SNB-19),inhibition at 10 µM (SF-268),inhibition at 10 µM (PC-3),inhibition at 10 µM (HS 578T),inhibition at 10 µM (MCF7),inhibition at 10 µM (OVCAR-4),inhibition at 10 µM (SK-OV-3),inhibition at 10 µM (NCI-H322M),inhibition at 10 µM (M14),inhibition at 10 µM (HCC-2998),inhibition at 10 µM (U251),inhibition at 10 µM (OVCAR-8),inhibition at 10 µM (NCI-H460),inhibition at 10 µM (HOP-62),inhibition at 10 µM (OVCAR-3),inhibition at 10 µM (NCI-H522),inhibition at 10 µM (CAKI-1),inhibition at 10 µM (A549/ATCC),inhibition at 10 µM (NCI-H226),inhibition at 10 µM (TK-10),also measured
"Oc1ccccc1/C=N/Nc1nc(N/N=C/c2ccccc2O)nc(N2CCOCC2)n1 [compound 6a, 2-[(1e)-(2-{4-[(E)-2-[(2-Hydroxyphenyl)methylidene]hydrazin-1-yl]-6-(morpholin-4-yl)-1,3,5-triazin-2-yl}hydrazin-1-ylidene)methyl]phenol]",58.3%,27.7%,75.9%,53%,60%,88.2%,88.1%,55.5%,62.4%,41.1%,78%,87.3%,67.5%,74.3%,66.4%,39.1%,95.4%,87%,76.7%,52%,inhibition at 10 µM (KM 12): 47.3%; inhibition at 10 µM (NCI-H23): 58.5%; inhibition at 10 µM (OVCAR-5): 63%; inhibition at 10 µM (RXF 393): 101%; GI50 (RXF 393): 270 nM; inhibition at 10 µM (MDA-MB-435): 41.1%; GI50 (MDA-MB-435): 9530 nM; inhibition at 10 µM (HOP-92): 87.2%; GI50 (HOP-92): 1650 nM; inhibition at 10 µM (SR): 84%; GI50 (SR): 320 nM
"Brc1cccc(/C=N/Nc2nc(N/N=C/c3cccc(Br)c3)nc(N3CCOCC3)n2)c1 [compound 6c, 2,4-Bis[(E)-2-[(3-bromophenyl)methylidene]hydrazin-1-yl]-6-(morpholin-4-yl)-1,3,5-triazine]",22.1%,31.6%,63.5%,33.8%,77.9%,45.8%,7.13%,47.2%,68.3%,68.5%,57.3%,62.6%,58.8%,47.7%,57.5%,66.5%,84.6%,57.4%,56.7%,33.2%,inhibition at 10 µM (KM 12): 69.7%; inhibition at 10 µM (NCI-H23): 56.9%; inhibition at 10 µM (OVCAR-5): 27.6%; inhibition at 10 µM (RXF 393): 168%; GI50 (RXF 393): 160 nM; inhibition at 10 µM (MDA-MB-435): 66.6%; inhibition at 10 µM (HOP-92): 36.2%; GI50 (HOP-92): 1240 nM; inhibition at 10 µM (SR): 92.1%; GI50 (SR): 160 nM
"Clc1cccc(/C=N/Nc2nc(N/N=C/c3cccc(Cl)c3)nc(N3CCOCC3)n2)c1 [compound 6d, 2,4-Bis[(E)-2-[(3-chlorophenyl)methylidene]hydrazin-1-yl]-6-(morpholin-4-yl)-1,3,5-triazine]",12.1%,34.1%,58.5%,32.5%,57%,33.6%,-29.6%,46.2%,64.8%,41%,39.6%,50.5%,21.8%,-9.83%,43.7%,86.1%,62.4%,53.4%,39.6%,-0.21%,inhibition at 10 µM (KM 12): 69.8%; inhibition at 10 µM (NCI-H23): 29.4%; inhibition at 10 µM (OVCAR-5): 4.53%; inhibition at 10 µM (RXF 393): 82.5%; GI50 (RXF 393): 1000 nM; inhibition at 10 µM (MDA-MB-435): 50.7%; GI50 (MDA-MB-435): 4240 nM; inhibition at 10 µM (HOP-92): 34.5%; GI50 (HOP-92): 2170 nM; inhibition at 10 µM (SR): 92.3%; GI50 (SR): 320 nM
